In patent US20210386761A1, “COMPOSITION FOR PREVENTING OR TREATING INFLAMMATORY BOWEL DISEASE, CONTAINING, AS ACTIVE INGREDIENT, TAURODEOXYCHOLIC ACID OR PHARMACEUTICALLY ACCEPTABLE SALT THEREOF” (SHAPERON INC., priority 2019, published 2021):

Key:
[1] = tested on: inflammatory bowel disease-induced mouse model (DSS); assay: Clinical symptom analysis (body weight, DAI, survival) in 2% DSS inflammatory bowel disease-induced mouse model; assay type: in vivo
Method: An inflammatory bowel disease-induced mouse model using dextran sodium sulfate (DSS) was prepared by the following method.
Specifically, male C57BL/6 mice (7 to 12 weeks old, body weight of 18 to 30 g) were adapted for one week and used in the experiment. Animal rearing was carried out under the conditions of a temperature of 25° C. and a day and night cycle (12 hours night/12 hours daytime), and feed and drinking water were freely fed. All the animals were managed according to the guidelines for use of experimental animals of Seoul National University IACUC (IACUC: SNU-151223-4-1). On the day of administration of DSS (MP Biomedicals, Santa Ana, Calif., USA) (Day 0), mice were weighed and marked on the tail.
Next, male C57BL/6 mice were fed with a 2% DSS solution together with drinking water from Day 0 of the experiment to induce inflammatory bowel disease. DPBS or 10, 5, 2.5, or 1 mg/kg sodium taurodeoxycholic acid (TDCA) was administered in 0.1 ml by oral gavage one time a day from Day 1 of the experiment. Alternatively, 0.1 ml of 5 mg/kg TDCA was administered one time a day by oral gavage 2 days before DSS administration.
The 2% DSS solution was used after being prepared by dissolving DSS powder in sterilized distilled water and filtering the solution. The TDCA was dissolved in DPBS (Dulbecco's phosphate-buffered saline) and used.
The disease activity indexes (DAI) including body weight, body weight loss, stool consistency, and bloody stool were measured daily. DAI was scored according to the following [Table 1].
(§1) Specifically, female C57BL/6 mice were fed with a 2% DSS solution or DPBS together with drinking water for 10 days from Day 0 of the experiment by the same method as that described in <Example 1>, DPBS or 5 mg/kg TDCA was administered to the mice by oral gavage one time a day for 11 days from Day 1 of the experiment, and the body weight and DAI were measured daily. As a control, mice freely fed with drinking water were used.
as §1, with “or 10, 5, 2.5, or 1” for “or 5”
as §1, with “solution” for “solution or DPBS”, “7” for “10”, “gavage” for “gavage one time a day for 11 days”, “DSS administration or 2 days before DSS administration,” for “the experiment,”
as §1, with “Specifically, C57BL/6-Gpbar1^tm1(KOMP)Vlcg mice (TGR5 KO, KOMP Repository, The Knockout Mouse Project, University of California, Davis, Calif.) were used as TGR5 knockout (TGR5^−/−) female C57BL/6 mice. The TGR5^−/− female C57BL/6 mice or TGR5 normal (WT)” for “Specifically,”, “1>.” for “1>,”

[2] = tested on: inflammatory bowel disease-induced mouse model (DSS); assay: Histopathological symptom analysis (colon length, histological state and score) in 2% DSS mouse model; assay type: in vivo
Method: After the experiment was completed, the mice were euthanized with CO2 and the bowels were excised. Next, the bowels were put in cold 1×DPBS and the remaining mesenteric adipose tissue was isolated. At this time, the colon length was measured. Next, the tail end of the colon was opened and wound up with scissors to obtain colon tissue. The obtained colon tissue was fixed in 10% neutral buffered formalin (Sigma-Aldrich, HT501128-4L, St. Louis, Mo., USA) at room temperature for 48 hours and then treated in a tissue processor (Excelsior ES, Thermo scientific, Waltham, Mass., USA) for 12 hours. The processed tissue was sectioned and paraffinized using a microtome (Microm, HM 340E, Thermo Scientific, Waltham, Mass., USA) and an embedding system (HistoStar, Thermo Scientific, Waltham, Mass., USA). Next, the processed tissue was stained with hematoxylin and eosin, and visualized under an optical microscope (Motic, BA310, Redding, Calif., USA) to confirm the histopathological state, and the histopathological state was scored to histological score according to the criteria in the following [Table 2].
as §1, with “7” for “10”, “6” for “11”, “used. Next, the mice were sacrificed on Days 5 and 7 of the experiment by the same method as that described in <Example 2>, and histopathological symptom analysis was performed.” for “used.”
as §1, with “for 7” for “for 10”, “or 10, 5, 2.5, or 1” for “or 5”, “for 6” for “for 11”, “1” for “1 of”
Next, the mice were sacrificed on Day 8 of the experiment by the same method as that described in <Example 2>, and histopathological symptom analysis was performed.
The mice were sacrificed on Day 8 of the experiment by the same method as that described in <Example 2>, and the colon length was measured.

[3] = 2% DSS 7 days, 5 mg/kg TDCA oral gavage, FIG. 2B
[4] = 2% DSS 7 days, 10, 5, 2.5, or 1 mg/kg TDCA, Day 8, FIG. 5B

C[C@H](CCC(=O)NCCS(=O)(=O)O)[C@H]1CC[C@H]2[C@@H]3CC[C@@H]4C[C@H](O)CC[C@]4(C)[C@H]3C[C@H](O)[C@]12C [TDCA, sodium taurodeoxycholic acid]
initial body weight lost on Day 10 ([1]; 2% DSS 10 days, 5 mg/kg TDCA oral gavage one time a day for 11 days from Day 1, DSS+DPBS group about 15%, FIG. 1A): about 5%
survival rate ([1]; 2% DSS 10 days, 5 mg/kg TDCA oral gavage one time a day, DSS+DPBS group 60%, FIG. 1C): 100%
start of body weight loss later than the DSS+DPBS group ([1]; 2% DSS 10 days, 5 mg/kg TDCA oral gavage one time a day, FIG. 1A): about 2 days
DAI (disease activity index) change ([1]; 2% DSS 10 days, 5 mg/kg TDCA oral gavage one time a day, FIG. 1B): lower than that in the DSS+DPBS group
DAI change ([1]; 2% DSS 10 days, 10, 5, 2.5, or 1 mg/kg TDCA, FIG. 4B): lower than that in the DSS+DPBS group
degree of alleviation of body weight loss ([1]; 2% DSS 10 days, TDCA at 5 and 10 mg/kg, among 10, 5, 2.5, 1 mg/kg, FIG. 4A): superior
DAI change ([1]; 2% DSS 10 days, TDCA at 10, 5, and 2.5 mg/kg, among 10, 5, 2.5, 1 mg/kg, FIG. 4B): DAI was lower
DAI change ([1]; DSS+TDCA group: 5 mg/kg TDCA from Day 1 of DSS administration, 2% DSS 7 days, FIG. 6B): similarly decreased
DAI change ([1]; DSS+preTDCA group: 5 mg/kg TDCA from 2 days before DSS administration, 2% DSS 7 days, FIG. 6B): similarly decreased
initial body weight lost on Day 10 ([1]; TGR5 normal (WT) mice, 2% DSS 10 days, 5 mg/kg TDCA oral gavage one time a day, FIG. 8A): about 5%
DAI change ([1]; TGR5 normal (WT) mice, 2% DSS 10 days, 5 mg/kg TDCA, FIG. 8B): lower than those in the other groups
survival rate ([1]; TGR5 normal (WT) mice, 2% DSS 10 days, 5 mg/kg TDCA, FIG. 8C): 100%
colon length change ([2]; 2% DSS 7 days, 5 mg/kg TDCA oral gavage one time a day for 6 days, FIG. 2A): the decrease in colon length was slight
average histological score ([2]; 2% DSS 7 days, 5 mg/kg TDCA oral gavage, DSS+DPBS group about 7, FIG. 2C): about 4
epithelial cell defects (histological state) [2, 3]: not observed
infiltration of inflammatory cells into the mucous membrane [2, 3]: slight
ulcer ([2]; 2% DSS 7 days, 5 mg/kg TDCA oral gavage, FIG. 2C): the ulcer was alleviated
colon length change ([2]; 2% DSS 7 days, 10, 5, 2.5, or 1 mg/kg TDCA, Day 8, FIG. 5A): the decrease in colon length was slight
epithelial cell defects (histological state) [2, 4]: not observed
infiltration of inflammatory cells into the mucous membrane [2, 4]: alleviated
colon length change ([2]; 2% DSS 7 days, TDCA at 5 and 10 mg/kg, Day 8, FIG. 5A): the decrease in colon length was slighter
average histological score ([2]; 2% DSS 7 days, TDCA at 5 and 10 mg/kg, Day 8, FIG. 5C): about 4
ulcer alleviating effect ([2]; 2% DSS 7 days, TDCA at 5 and 10 mg/kg, Day 8, FIGS. 5B and 5C): superior
colon length change ([2]; DSS+TDCA group: 5 mg/kg TDCA from Day 1 of DSS, Day 8, FIG. 6C): the decrease in colon length was suppressed
colon length change ([2]; DSS+preTDCA group: 5 mg/kg TDCA from 2 days before DSS, Day 8, FIG. 6C): the decrease in colon length was suppressed
